From patent publication US10538496B2, “Methods using HDAC11 inhibitors” (FORMA Therapeutics, Inc., priority 2016, dated 2020)

Tests used:
[1] = test system: STAT3 and STAT5 phosphorylation in HEL 92.1.7 cells; assay: STAT3 and STAT5 phosphorylation western blot assay; format: cell-based
Method: The effects of selective HDAC11 inhibition on STAT3 and STAT3 phosphorylation in HEL 92.1.7 cells were determined by western blot. Cells were treated with HDAC11 inhibitors and lysed in RIPA buffer (Sigma-Aldrich, St. Louis, Mo.) supplemented with protease inhibitors (Roche, Basel, Switzerland) and phosphatase inhibitors (Sigma P5726). Protein concentrations were determined with Pierce BCA protein assay kit (Thermo Fisher Scientific, Waltham, Mass.). Proteins were separated on a 4-12% Bis-Tris gradient electrophoresis gel (Life Technologies, Carlsbad, Calif.) and transferred onto a nitrocellulose membrane. The membrane was then blocked in either 5% nonfat dry milk or 5% BSA followed by incubation with primary antibodies at 4° C. overnight. Antibodies for p-STAT5 (Abcam 32364), STAT5 (Cell Signaling 9358), p-STAT3 (Cell Signaling 9145) and STAT3 (Cell Signaling 9139) were used. β-actin was used as loading control.

[2] = test system: myeloid cells from MPN patients; assay: Colony formation assay from patient samples; format: cell-based, human; settings: two patient samples (ET; PV, Ruxolitinib resistant)
Method: (§1) To determine the effects of selective HDAC11 inhibition on MPN patient samples, the effects of HDAC11 inhibitors were evaluated in a colony formation assay with erythroid or myeloid cells from MPN patients. Peripheral blood was obtained from MPN patients consented through the Moffitt Cancer Center Total Cancer Care protocol (MCC 14690). Blood was treated with HetaSep™ (STEMCELL Technologies, Inc.) to remove the majority of red blood cells. Peripheral blood mononuclear cells (PBMCs) were isolated by ficoll separation. PBMCs (1-4×105) were then plated in 1 mL of methylcellulose medium containing rhSCF, rhIL-3, and granulocyte-macrophage colony-stimulating factor (rhGM-CSF) (MethoCult™ #H4534; STEMCELL Technologies, Inc.). All drug treated samples contained 0.1% DMSO as the final concentration. Cells were incubated at 37° C. and 5% CO2 in a humidified incubator. Colonies were scored 12 to 14 days after plating.

[3] = test system: erythroid cells from MPN patients; assay: Colony formation assay from patient samples; format: cell-based, human; settings: two patient samples (ET; PV, Ruxolitinib resistant)
Method: as §1

HEL 92.1.7 cells = assay: Cell proliferation assay (CCK8); format: cell-based; settings: 48h
Method: (§2) This example describes inhibition of in vitro cell proliferation with exemplary HDAC11 inhibitors. The effects of selective HDAC11 inhibitors on cell proliferation were measured in cell lines containing the MPN-associated mutations MPL W515L (Ba/F3 MPL W515L) and JAK2 V617F (Ba/F3 JAK2 V617F, HEL 92.1.7, SET-2). HEL 92.1.7 and SET-2 cells were purchased from the ATCC and DSMZ, respectively. Ba/F3 cells overexpressing either MPLW515L or JAK2V617F, which were cytokine independent, were generated by transforming Ba/F3 cells with retroviruses overexpressing either MPL W515L or JAK2V617F. For survival assays, cells were seeded in 96-well plates at the density of 0.1 million/ml with addition of indicated compounds and incubated at 37° C. for 48h. CCK8 solution (Dojindo, Rockville, Md.) was added and absorbance at 450 nm was measured after 3 hours of incubation. Readings were normalized to dimethylsulfoxide (DMSO)-treated wells.

SET-2 cells = assay: Cell proliferation assay (CCK8); format: cell-based; settings: Ruxolitinib-resistant SET-2
Method: as §2

A549 cells = assay: Cell migration (scratch) assay; format: cell-based
Method: The effects of HDAC11 inhibition on cell migration were determined using a scratch assay. A549 cells (120,000-150,000 cells/2 ml/well) were grown in 6-well tissue culture plates (BD Biosciences). A scratch was made using a sterile 2 μl pipette tip in each well. The 10% FBS containing medium was added to the wells after a wash with DPBS. To assess the effect of the HDAC11 inhibitors on cell migration, the inhibitors were added in the medium at appropriate concentrations. The cells were further incubated at 37° C. The images were taken on Day 0 and after every 24 hours using EVOS FL microscope system and EVOS software (Life Technologies Inc) and the cell migration was compared to the Day 0 of treatment.

Ba/F3 JAK2 V617F cells = assay: Cell proliferation assay (CCK8); format: cell-based; settings: Mus musculus, BaF3; Ba/F3 JAK2V617F, 48h; read-out: IC50, inhibition of proliferation
Method: as §2

Ba/F3 MPL W515L cells = assay: Cell proliferation assay (CCK8); format: cell-based; settings: Mus musculus, BaF3; Ba/F3 MPLW515L, 48h; read-out: IC50, inhibition of proliferation
Method: as §2

[4] = test system: H1650 cells co-cultured with primary CAFs from human lung cancer; assay: Co-culture assay with cancer cells and cancer associated fibroblasts; format: cell-based
Method: The effects of selective HDAC11 inhibition on cancer cells and cancer associated fibroblasts (CAFs) were determined in a co-culture assay. The cells were first trypsinized and collected in serum containing medium and were further incubated in same media at 37° C. for 15-20 min for recovery. The cells were resuspended in serum free media at 1×10^6 cells/ml density and stained with 10 uM of cytotracker green (Cancer associated fibroblasts) or cytotracker red dye (H1650 cells) (Life Technologies Inc) at 37° C. for 90 min. The stained cells were washed twice with serum free medium to remove excess dye at 1500 rpm for 5 min. The cytotracker green stained CAFs were mixed with cytotracker red stained H1650 cells in 1:1 ratio and grown in 96-well tissue culture plate overnight. The HDAC11 inhibitors were then added to the mixed adhered cells (CAFs+H1650) at appropriate concentrations. The images were taken on Day 0 and after every 24 hours using EVOS FL microscope system and EVOS software (Life Technologies Inc).

Compound	STAT3 phosphorylation [1]	STAT5 phosphorylation [1]	growth of colonies from myeloid cells [2]	growth of colonies from erythroid cells [3]	growth of the HEL 92.1.7 cell line (HEL 92.1.7 cells)	growth of a SET-2 cell line generated to be Ruxolitinib-resistant (SET-2 cells)	A549 cell migration (A549 cells)	IC50 (Ba/F3 JAK2 V617F cells) [µM]	IC50 (Ba/F3 MPL W515L cells) [µM]	growth of H1650 cells co-cultured with primary CAFs ([4]; 1:1 co-culture)	effects on CAFs ([4]; 1:1 co-culture with H1650 cells)
O=C(NO)c1cccc(Nc2nc3cc(Cl)c(Cl)cc3o2)c1 [HDTK010, 3-((5,6-dichlorobenzo[d]oxazol-2-yl)amino)-N-hydroxybenzamide]	inhibited	inhibited	reduced the growth of colonies	reduced the growth of colonies	inhibited the growth	inhibited the growth	–	–	–	–	–
O=C(NO)c1cccc2c1C[C@]1(CCN(Cc3ccc(Cl)c(C(F)(F)F)c3)C1=O)C2 [HDTK054, (S)-1′-(4-chloro-3-(trifluoromethyl)benzyl)-N-hydroxy-2′-oxo-1,3-dihydrospiro[indene-2,3′-pyrrolidine]-4-carboxamide]	–	–	–	–	–	–	impaired A549 cell migration	1 to 10	1 to 10	inhibit the growth	minimal effects
